Where “and” joins values, the source holds several entries; their conditions need not be identical. Equal entries are not always repeated.
Legend:
[1] = Pharmacokinetics in rats with ABT pretreatment (intestinal and hepatic availability); settings: for AUC(0-inf) / MRT last: p.o. YL-IPA08 (1 mg/kg); for MRT last: MRT(0–t)
[2] = Metabolic stability in human liver microsomes (NADPH / UDPGA); settings: HLM
[3] = Protein binding by rapid equilibrium dialysis, rat brain homogenate; format: in vitro ADME
Method: The fraction of unbound YL-IPA08 in plasma and liver microsomes of rat and human, and brain homogenates of rat were determined utilizing Rapid Equilibrium Dialysis method ([Waters et al., 2008]). Rat brain homogenate was harvested in 4-fold volume (w/v) of PBS (pH 7.4). YL-IPA08 were spiked into fresh plasma, rat brain homogenate, liver microsomes (0.2 mg/ml protein) at concentration of 1 µM, and then dialyzed against biomatrices on a shaker at 37°C for 4 h. To avoid the high non-specific binding of YL-IPA08, 0.01% Tween 80 was added in the incubation mixture. At the end of the incubation, protein was precipitated with acetonitrile (containing IS) and analyzed by LC-MS/MS. Phenacetin, quinidine, and warfarin were selected as positive control for the protein binding test.
The unbound fraction of YL-IPA08 in plasma or liver microsomes (ƒu,x) was calculated as shown in Eq. 2, and unbound fraction in the tissue homogenate (ƒu,b) was calculated according to Eq. 3. fu,x = Concbuffer chamber/Concplasma/liver microsomes chamber (2) fu,b = Concbuffer chamber/Concbrain homogenate chamber (3) The measured unbound fractions would be higher when a tissue is homogenized and diluted in buffer, the unbound fractions in an undiluted tissues (ƒu,brain) were calculated using Eq. 4 ([Kalvass and Maurer, 2002]). Undiluted fu,brain=1/D/((1/fu,brain homogenate)−1)+1/D (4) Where D represents the fold of dilution factor in brain homogenates.

[4] = rat, plasma, po, 1 mg/kg, rats, i.v. ABT
[5] = rat, plasma, po, 1 mg/kg, rats, p.o. ABT
[6] = rat, plasma, po, 1 mg/kg, with ABT 50 mg/kg i.v., 1 h before dosing
[7] = rat, plasma, po, 1 mg/kg, with ABT 100 mg/kg p.o., 15 h before dosing

With `CCN(Cc1ccccn1)C(=O)Cc1c(-c2ccc(Cl)c(Cl)c2)nc2cc(C)ccn12` [YL-IPA08] the concentration at 8 h ([1]; rat, plasma, oral, 1 mg/kg, Plasma concentration, rats, p.o. 100 mg/kg ABT, p.o. 1 mg/kg YL-IPA08, 8 h) was 34.2 ± 19.6 ng/mL, the concentration at 12 h ([1]; rat, plasma, oral, 1 mg/kg, Plasma concentration, rats, p.o. 100 mg/kg ABT, p.o. 1 mg/kg YL-IPA08, 12 h) was 17.4 ± 8.5 ng/mL and the concentration at 24 h ([1]; rat, plasma, oral, 1 mg/kg, Plasma concentration, rats, p.o. 100 mg/kg ABT, p.o. 1 mg/kg YL-IPA08, 24 h) was 1.39 ± 0.98 ng/mL. It also gave a bioavailability ([1]; rat, plasma, oral, 1 mg/kg, with ABT 50 mg/kg i.v., 1 h before dosing) of 19.7%, a concentration at 0.25 h ([1]; rat, plasma, oral, Plasma concentration, rats, i.v. 50 mg/kg ABT, p.o. 1mg/kg YL-IPA08, 0.25 h) of 28.2 ± 25.2 ng/mL and a concentration at 0.5 h ([1]; rat, plasma, oral, Plasma concentration, rats, i.v. 50 mg/kg ABT, p.o. 1mg/kg YL-IPA08, 0.5 h) of 30.3 ± 35.4 ng/mL. It also gave a concentration at 1 h ([1]; rat, plasma, oral, Plasma concentration, rats, i.v. 50 mg/kg ABT, p.o. 1mg/kg YL-IPA08, 1 h) of 34.8 ± 50.4 ng/mL, a concentration at 2 h ([1]; rat, plasma, oral, Plasma concentration, rats, i.v. 50 mg/kg ABT, p.o. 1mg/kg YL-IPA08, 2 h) of 30.5 ± 42 ng/mL and a concentration at 4 h ([1]; rat, plasma, oral, Plasma concentration, rats, i.v. 50 mg/kg ABT, p.o. 1mg/kg YL-IPA08, 4 h) of 13.3 ± 17.1 ng/mL. For the same compound, the concentration at 6 h ([1]; rat, plasma, oral, Plasma concentration, rats, i.v. 50 mg/kg ABT, p.o. 1mg/kg YL-IPA08, 6 h) was 6.4 ± 4.73 ng/mL, the concentration at 0.25 h ([1]; rat, plasma, oral, Plasma concentration, rats, p.o. 100 mg/kg ABT, p.o. 1 mg/kg YL-IPA08, 0.25 h) was 403 ± 402 ng/mL and the concentration at 0.5 h ([1]; rat, plasma, oral, Plasma concentration, rats, p.o. 100 mg/kg ABT, p.o. 1 mg/kg YL-IPA08, 0.5 h) was 370 ± 354 ng/mL. It also gave a concentration at 1 h ([1]; rat, plasma, oral, Plasma concentration, rats, p.o. 100 mg/kg ABT, p.o. 1 mg/kg YL-IPA08, 1 h) of 334 ± 247 ng/mL, a concentration at 2 h ([1]; rat, plasma, oral, Plasma concentration, rats, p.o. 100 mg/kg ABT, p.o. 1 mg/kg YL-IPA08, 2 h) of 246 ± 150 ng/mL and a concentration at 4 h ([1]; rat, plasma, oral, Plasma concentration, rats, p.o. 100 mg/kg ABT, p.o. 1 mg/kg YL-IPA08, 4 h) of 125 ± 71.7 ng/mL. For the same compound, the concentration at 6 h ([1]; rat, plasma, oral, Plasma concentration, rats, p.o. 100 mg/kg ABT, p.o. 1 mg/kg YL-IPA08, 6 h) was 47.7 ± 28.6 ng/mL, the AUC(0-t) ([1]; rat, plasma, po, 1 mg/kg) was 185 ± 148 ng·h/mL and the AUC(0-inf) [1, 4] was 188 ± 146 ng·h/mL. It also gave an AUC(0-inf) [1, 5] of 876 ± 183 ng·h/mL, an MRT last [1, 4] of 8.37 ± 3.67 h and an MRT last [1, 5] of 5.51 ± 1.25 h. The Cmax [1, 6] was 41.8 ± 42 ng/mL, the Tmax [1, 6] was 0.87 ± 0.68 h and the AUC(0-t) [1, 7] was 868 ± 185 ng·h/mL. For the same compound, the Cmax [1, 7] was 176 ± 88.5 ng/mL, the Tmax [1, 7] was 1.4 ± 1.32 h and the bioavailability [1, 7] was 69.7%. For the same compound, the “E g (gut extraction)” value ([1]; rats, ABT i.v.) was 75%, the “E h (hepatic extraction)” value ([1]; rats, ABT i.v.) was 20% and the F g ([1]; rats, ABT i.v.) was 25%. For the same compound, the F h ([1]; rats, ABT i.v.) was 80%, the F p.o. ([1]; rats, ABT i.v.) was roughly 20% and the “E g (gut extraction)” value ([1]; rats, ABT p.o.) was 16%. For the same compound, the “E h (hepatic extraction)” value ([1]; rats, ABT p.o.) was 17%, the F g ([1]; rats, ABT p.o.) was 84% and the F h ([1]; rats, ABT p.o.) was 83%. For the same compound, the F p.o. ([1]; rats, ABT p.o.) was roughly 70%, the “reduction of systemic clearance” value ([1]; rats, ABT pretreatment through i.v. injection) was “about 75%” and the “reduction of systemic clearance” value ([1]; rats, ABT pretreatment through oral gavage) was roughly 80%. The “E g (gut extraction)” value ([1]; rats, No ABT) was 65%, the “E h (hepatic extraction)” value ([1]; rats, No ABT) was 83% and the F g ([1]; rats, No ABT) was 35%. For the same compound, the F h ([1]; rats, No ABT) was 17%, the F p.o. ([1]; rats, No ABT) was 6% and the “Clint normalized by CYP content” value [2] was 3.47 ± 0.04 ml/min/nmol CYP protein and 2.76 ± 0.05 ^a ml/min/nmol CYP protein. The “Protein biding (%)” value ([3]; Rat brain homogenate, 1 µM, dialysis 4 h) was 99.51 ± 0.01%, the “Concentration, Cbuffer chamber” value ([3]; Rat brain homogentate, 4 h) was 18.85 ± 0.21 nM and the “Concentration, Cplasma/microsome chamber” value ([3]; rat, 4 h, 1 µM, pH 7.4) was 788.33 ± 8.39 nM. The fraction unbound at 4 h, 1 µM ([3]; rat, brain homogenate, pH 7.4) was 0.0049.

Source: article PMC7732531 (Frontiers in Pharmacology, 2020)
